Measured values as given in patent US11077167B2, “Agent for promoting skeletal muscle injury repair” (Osaka University, priority 2017, dated 2021).

Assays:
[1] = tested on: muscle injury model rats (incised masseter muscles on both sides); test: Histological staining of masseter muscles at postoperative week 1, Example 1; assay type: in vivo, Jcl:SD rats; conditions: P<0.05, t-test
Protocol: (§1) Incisions were made in masseter muscles on both sides in Jcl:SD rats (10 weeks old). Immediately after muscle incision, 1 mL each of the SV peptide (20 ng/mL) was intramuscularly administered into several sites surrounding the cut surfaces. The incision on each side was made along a straight line connecting the lateral angle of the eye and the mandibular angle, extending in depth from the fascia on the skin side to the lateral periosteum on the mandibular ramus. The cut surfaces were subjected to electrocoagulation with an electric scalpel for the arrest of bleeding (see FIG. 1).
This experiment was performed on rats subjected to incision of masseter muscles on both sides and subsequent administration of the SV peptide into the incised left masseter muscle without administration into the incised right masseter muscle (control). Each rat was euthanized at postoperative week 1, and the masseter muscles on both sides were excised. Histological sections were prepared by the usual method and subjected to various types of staining. The number of immature muscle fibers with central nuclei, which were muscle fibers involved in muscle repair, and the number of blood vessels were counted on HE-staining specimens. The masseter muscle was divided into upper and lower halves in the coronal plane, and 2 slices each of the upper and lower halves were used for counting. Counting was performed in 5 fields of view in each slice. The area of granulation tissue formed on the cut surfaces was measured on sirius red-staining specimens (type I and type III collagens were stained) using an image-analysis software. The sections were immunostained for myogenin, a marker for myotube cells, and the number of myogenin-positive cells was counted using an image-analysis software.

[2] = tested on: muscle injury model rats (incised masseter muscles on both sides); test: Behavioral physiological experiment (feeding behavior, body weight), Example 1; assay type: in vivo, Jcl:SD rats; conditions: 1 mL intramuscular
Protocol: as §1
Feeding behavior and body weight of each rat was monitored preoperatively and 1 and 2 weeks postoperatively. More specifically, each rat was housed in a transparent plastic cage of 30 cm in length×30 cm in width×30 cm in height, and the behavior was recorded on video cameras during the active time of rats (18:00 to 22:00). Food intake and mastication time were measured, and the food intake per unit of mastication time (feeding efficiency) was calculated. This experiment was performed on a muscle injury model subjected to administration of the SV peptide into the incised masseter muscles on both sides (SV group) and on a muscle injury model subjected to administration of PBS into the incised masseter muscles on both sides (PBS group).

[3] = tested on: Human skeletal muscle satellite cells (HskMSCs); test: Chemotactic capacity (Chemotaxicell membrane); assay type: cell-based; conditions: SV peptide 20 ng/mL as chemoattractant; 12 hours; vs PBS or random SV
Protocol: (§2) Human skeletal muscle satellite cells (HskMSCs) were purchased from ScienCell Research Laboratories and used. The medium used for HskMSC culture was the supplier's recommended medium (Skeletal Muscle Cell Medium containing 5% FBS, Skeletal Muscle Cell Growth Supplement, and penicillin/streptomycin solution).
A polycarbonate membrane with a pore size of 8 μm (Chemotaxicell: Kurabo Industries LTD.) was immersed in a 10 μg/mL fibronectin solution at room temperature for 30 minutes for coating the membrane. A medium containing the SV peptide (20 ng/mL, SV group), the random SV (20 ng/mL, random SV group), or PBS (PBS group) as a chemoattractant was added to a lower chamber. On an upper chamber, human skeletal muscle satellite cells and human skeletal muscle myoblasts were separately seeded at 2.0×10^4 cells/mL in DMEM containing 0.1% BSA. A pair of chambers was incubated at 37° C. for 12 hours. The cells on the upper surface of the membrane were removed with a swab, and the membrane was fixed with a 10% neutral buffered formalin solution (Wako Pure Chemical Industries, Ltd.) and stained with hematoxylin. The number of cells migrated to the lower surface of the membrane was measured under an optical microscope.

[4] = tested on: Human skeletal muscle myoblasts (HSMMs); test: Cell migratory capacity (cell-denuded area); assay type: cell-based; conditions: SV peptide 20 ng/mL
Protocol: Human skeletal muscle myoblasts (HSMMs) were purchased from Lonza and used. The medium used for HSMM culture was the supplier's recommended medium (Skeletal Muscle Growth Media-2 supplemented with SingleQuots Kit).
(§3) Human skeletal muscle satellite cells and human skeletal muscle myoblasts were separately cultured on 60-mm (diameter) dishes (Iwaki) to 100% confluency. From each dish, a 2-mm-wide strip of cells were removed, and the medium was replaced with a medium containing the SV peptide (20 ng/mL, SV group), the random SV (20 ng/mL, random SV group), or PBS (PBS group). Thereafter, culture was continued. Images were taken with a digital camera mounted on a phase-contrast microscope every 12 hours. The cell-denuded area was measured using the image-analysis software ImageJ (NIH, USA). The cell migration percentage was determined by calculating the percentage of reduction in the cell-denuded area relative to the value immediately after cell removal.

[5] = tested on: Human skeletal muscle satellite cells (HskMSCs); test: Cell migratory capacity (cell-denuded area); assay type: cell-based; conditions: SV peptide 20 ng/mL
From the text: as §2, §3

SVVYGLR [SV peptide] was tested, and the “number of muscle fibers with central nuclei” value ([1]; HE staining, SV peptide side vs control side) was “significantly larger on the SV peptide side than that on the control side”, the “number of blood vessels per field of view” value ([1]; HE staining, SV peptide side vs non-administration control side) was “significantly larger on the SV peptide side than that on the control side” and the “number of myogenin-positive nuclei per field of view” value ([1]; myogenin immunostaining, SV peptide side vs control side) was “significantly larger on the SV peptide side than that on the control side”. For the same substance, the “area of granulation tissue formed on cut surfaces” value ([1]; sirius red staining, SV peptide side vs control side) was “significantly smaller on the SV peptide side than that on the control side”, the “feeding efficiency (food intake per unit of mastication time)” value ([2]; postoperative week 1, relative to preoperative value = 1, SV peptide 20 ng/mL) was “reduced” and the “feeding efficiency (food intake per unit of mastication time)” value ([2]; postoperative week 2, relative to preoperative value = 1, SV peptide 20 ng/mL) was “recovered to almost the preoperative level”. The “chemotactic capacity (number of cells migrated to lower surface of membrane)” value [3] was “tended to have a higher chemotactic capacity than that of the counterpart in the PBS group or the random SV group, but there was no significant intergroup difference”, the “cell migratory capacity (cell migration percentage)” value ([4]; 36 and 48 hours after cell removal) was “significantly different from that in the PBS group or the random SV group” and the “cell migratory capacity (cell migration percentage)” value ([4]; 24 hours after cell removal and thereafter) was “higher than that in the PBS group or the random SV group”. The cell migratory capacity [5] was “did not affect”.
